Assay results taken from a melting point compilation (Tetko et al.).

Compound | melting point [°C]
COc1ccccc1C1(C)CCc2oc3ccccc3c2-c2oc(C)cc21 (centres undefined) | 158
NC(=O)c1nc(-c2ccccc2)n(-c2ccc(Cl)c(COCC(F)(F)C(F)(F)F)c2)n1 | 146
C=CCc1ccccc1 | -40
CCCCC(=O)c1ccc(N)cc1 | 74.5
O=Cc1ccc(F)cc1 | -10
COc1cc2oc(=O)cc(CBr)c2cc1OC | 202
N#Cc1ccc(NC(N)=S)cc1 | 209 to 210
O=C(O)c1[nH]c2ccc([N+](=O)[O-])cc2c1-c1ccccc1 | 290
Cc1cc(C)n(CN(Cn2nc(C)cc2C)c2ccc(N(Cn3nc(C)cc3C)Cn3nc(C)cc3C)cc2)n1 | 175
O=C(O)C=CC(=O)Nc1ccc(F)cc1F | 191
CCC12CCCN3CCC4(c5cccc(OC)c5N(C(C)=O)C4CC1)C32 (centres undefined) | 208
N#Cc1ccc(-c2cc[nH]n2)cc1 | 141
Cc1[nH]c2ccccc2c1C | 106
CN1CCN(C)C(C(=O)NN)C1 (centres undefined) | 113
O=[N+]([O-])c1ncccc1Br | 104
O=C(COC(=O)c1ccccc1)c1ccccc1 | 119
COc1cccc(N)c1C(=O)O | 85
CC(=O)OC1CC[C@@]2(C)C(=CC[C@@H]3[C@@H]2CC[C@@]2(C)[C@H]3CC[C@]2(O)C#Cc2ccccc2)C1 (some centres undefined) | 147 to 148
CN(C)c1ccccc1-c1ccccc1P(C1CCCCC1)C1CCCCC1 | 123
C=C(C)CCCCCCCCCCCCCC | 2
O=[N+]([O-])c1c(Cl)ccc2nsnc12 | 149 to 152
CC(=O)OCC(=O)C1(O)C(OC(C)=O)CC2C3CCC4=CC(=O)C=CC4(C)C3(F)C(O)CC21C (centres undefined) | 235
Cc1cc(F)ccc1N | 14.2
OCC1(O)CC(O)C(O)CO1 (centres undefined) | 111
O=C(Nc1ccc(Cl)c(Cl)c1)c1cc(Cl)ccc1O | 247

Compound | melting point [°C]
CCOC(CNC1=CC(=O)C=CC1=O)OCC | 70
Cc1ccc(CBr)cc1 | 35
CC12CCC(C(C(c3ccccc3)c3ccccc3)C1=O)C2(C)C (centres undefined) | 137
NS(=O)(=O)c1cccc([N+](=O)[O-])c1 | 167
O=C(Nc1ccccc1)C(Cl)(Cl)Cl | 96
CC(C)(C)c1cc(C(=O)c2ccccc2)c(O)cc1O | 144 to 148
COC(=O)C1=C(C)NC(C)=C(C(=O)OC)C1c1ccc(OC)cc1 | 173 to 177
CC(=O)OC1CC[C@H]2[C@@H]3[C@H](C)CC4CC(=O)CC[C@]4(C)[C@H]3CC[C@]12C (some centres undefined) | 142
O=C(O)C=C(CC(=O)O)C(=O)O | 187 to 191
CCOC(=O)c1c(C)csc1N | 81
Cc1c(CCl)cccc1[N+](=O)[O-] | 42 to 47
O=c1[nH]cc(Cl)cc1[N+](=O)[O-] | 234 to 236
Nc1cc(C(F)(F)F)cc(Cl)c1N | 42 to 43
COc1ccc(C(N)C(N)c2ccc(OC)cc2)cc1 (centres undefined) | 148 to 152
Nc1ccc([N+](=O)[O-])c(C(=O)O)c1 | 234 to 242
N[C@H](CCO)C(=O)O | 205
Cc1c(C2(c3cc(Br)c(O)c(Br)c3C)OS(=O)(=O)c3ccccc32)cc(Br)c(O)c1Br | 222
CC(=O)CC(C)=O | -23
O=P(O)(O)CCCCP(=O)(O)O | 219 to 221
O=[N+]([O-])c1cc(Cl)cc(Cl)c1O | 122
COc1ccc(Br)c(C(=O)NN)c1 | 165 to 166
CC12CCC3C(C(=O)CC4CC(=O)CCC43C)C1CCC2=O (centres undefined) | 229 to 234
CC(C)(C)OC(=O)N1Cc2[nH]c3ccccc3c2C[C@H]1C(=O)O | 286 to 291
Clc1ccc(COC(Cn2ccnc2)c2ccc(Cl)cc2Cl)cc1 (centres undefined) | 86.8
CC1(C)C(=O)N(Br)C(=O)N1Cl | 164

Compound | melting point [°C]
O=C(O)C=CC(=O)Nc1cccc(C(F)(F)F)c1 | 161 to 164
O=C(O)c1c(F)ccc(F)c1O | 152
CCOC(=O)C(CSC(=O)C(C)(C)Br)NC(C)=O (centres undefined) | > 20
O=c1nc(SCc2ccc(Cl)cc2)c2c([nH]1)CCCC2 | 287 to 289
Cc1ccc(N/N=C(/C(=O)c2cccc3ccccc23)S(=O)(=O)c2ccccc2)cc1 | 108 to 110
O=[N+]([O-])c1cccc(N=C=S)c1 | 58 to 60
CCCCC[C@H]1CC[C@H](C(=O)O)CC1 | 52 to 56
CC1=C(C(=O)OCc2ccccc2)C(c2ccccc2)NC(=O)N1C (centres undefined) | 118
CCOC(=O)Oc1c(OC)cc(C(=O)O)cc1OC | 180 to 185
Cc1ccc2nc3c(ccc4ccccc43)c(C)c2c1 | 159
Brc1ccc2c(c1)CNCC2 | 34
O=C(OCC1c2ccccc2-c2ccccc21)Oc1c(F)c(F)c(F)c(F)c1F | 85
COc1cc(C=C2SC(=S)N(CNc3ccc([N+](=O)[O-])cc3)C2=O)ccc1O | 195
Oc1ccc(Br)cn1 | 180
CC(O[S+]([O-])C(C)(C)C)C(O)(c1ccccc1)c1ccccc1 (centres undefined) | 135 to 137
CSc1c(C#N)c(N)nc2c(/N=N/c3cccc(C(F)(F)F)c3)c(N)nn12 | 293
NC(C(=O)O)c1ccc(O)cc1 (centres undefined) | 240
O=C(c1ccccc1)N1CCNCC1 | 63 to 64
Nc1ccccc1NC1CCN(Cc2ccccc2)CC1 | 111 to 112
N/N=C(/C(=O)c1cccc2ccccc12)c1ccccc1 | 152
CC(=O)c1nn(-c2ccc(F)cc2)c(=N)s1 | 198
COc1cccc(C=C(C)[N+](=O)[O-])c1 | 45 to 47
Brc1sc(Br)c2c1OCCO2 | 98
CCCCCCCCCCCCOC(=O)c1ccc(N)cc1 | 82
COC(=O)c1cc(Br)ccc1NC(C)=O | 134

Compound | melting point [°C]
CCOC(=O)CCC(=O)c1ccc(OC)cc1 | 51
Oc1ccc(Cl)c(C(F)(F)F)c1 | 44
Nc1ccccc1-n1cccc1 | 94 to 98
CC(C(=O)O)=C(c1ccccc1)c1ccccc1 | 163
Cc1cccc(-n2cc[nH]c2=S)c1 | 153 to 154
Cc1ccccc1/C=C(\C#N)c1nc2ccccc2n1C | 269
O=C(O)c1ccc(CBr)c([N+](=O)[O-])c1 | 131
OCc1sc(-c2ccccc2)nc1-c1ccccc1 | 125
O=C1/C(=C/c2ccccc2O)SC(=S)N1CN(CCCl)CCCl | 233
COc1ccc(CC(N)C(=O)NC2C(CO)OC(n3cnc4c(N(C)C)ncnc43)C2O)cc1 (centres undefined) | 176
N#Cc1sc2nc(-c3ccccc3)cc(C(F)(F)F)c2c1N | 236 to 238
Cc1ccc2c(c1C)CCC1C2CCC2CCCCC21C (centres undefined) | 156
O=C(O)/C=C/c1ccc(F)cc1F | 214 to 218
O=C(O)CCC(=O)c1ccc(C2CCCCC2)c(Cl)c1 | 163
C[Si](C)(C)O[Si](C)(C)O[Si](C)(C)O[Si](C)(C)O[Si](C)(C)O[Si](C)(C)O[Si](C)(C)C | -78
Cc1ccccc1C(=O)Cc1ccccc1C(=O)N(C)c1ccccc1 | 119
CCCCCCCCCCCCCCOc1ccccc1NC(=O)c1cc(Oc2ccc([N+](=O)[O-])cc2CN(C(=O)Cl)C(C)C)c2ccccc2c1O | 109 to 116
c1ccc2c(Oc3cccc4ccccc34)cccc2c1 | 110
O=[N+]([O-])c1cc(Cl)ccc1F | 8.3
CCCCOc1ccc(/N=N/c2ccc(CCCC)cc2)cc1 | 64 to 66
O=P(N1CCOCC1)(N1CCOCC1)N1CCOCC1 | 190
NC(=O)Cc1ccc(O)cc1 | 176 to 180
O=C1OC(=O)c2cc(Br)ccc21 | 107
CC(C)(C)CCl | -20
COc1cc(OC)c(C(C)=O)c(OC)c1 | 103

Compound | melting point [°C]
CC(=O)N(C)c1ccccc1C | 55.5
O=C(O)c1cc2cc(O)ccc2[nH]1 | 249
CCOC(=O)c1ccc(-n2c(C)ccc2C)cc1 | 88 to 90
CC1COCc2cc3c(cc21)C(C)(C)C(C)C3(C)C (centres undefined) | -5
ClC#CCl | -66
Cn1nc(CCl)cc1-c1cccs1 | 41 to 42
COc1ccc(C(=O)/C=C/c2cccc(OC)c2OC)c(O)c1 | 99.5
COc1cccc(NC(N)=S)c1 | 160
CC1(C)OC(=O)C(=Cc2ccc(-c3ccc(Cl)cc3)o2)C(=O)O1 | 109
O=C(Oc1ccccc1)c1ccc2ccccc2c1O | 93 to 97
FC(F)(F)c1ccc(N2CCOCC2)c(Br)c1 | 50 to 52
CC(C)(C)NCC(O)COc1nsnc1N1CCOCC1 (centres undefined) | 202
COP(=S)(OC)SCC(=O)N(C)C=O | 25.5
CCC1=C(C=NNc2ccc([N+](=O)[O-])cc2[N+](=O)[O-])CCCC1 | 192 to 194
Nc1cnccc1C(=O)O | 287 to 291
CCOC(=O)C1=C(N)Oc2ccc(Br)cc2C1C(C#N)C(=O)OCC (centres undefined) | 105 to 108
Cc1cc(O)c2c(c1)C(=O)c1cccc(O)c1C2=O | 196
c1ccc(-c2ncoc2-c2ccccc2)cc1 | 44
CCOC(=O)C(C#N)=NO | 130
O=Cc1ccc(Oc2ccccn2)cc1 | 45 to 46
c1ccc(Cc2c3ccccc3c(Cc3ccccc3)c3ccccc23)cc1 | 246
O/N=C(/C=Cc1ccccc1)c1ccccc1 | 115 to 116
CCCCc1c(C)nc(NCC)nc1O | 160
CC(C)N(C1=NC(=Cc2ccccc2)C(=O)N1c1ccccc1)C(C)C | 167
